Data reported in PubChem BioAssay AID256 (DTP/NCI, 2004).
Values joined by “and” are separate entries in the source; they are usually repeats but may differ in a detail not shown here. Equal entries are not always repeated. Toxic doses and inconclusive results are not listed.

System: CD2F1 mice, L1210 leukemia ip, survival T/C
Experiment: NCI In Vivo Anticancer Drug Screen. Data for tumor model L1210 Leukemia (intraperitoneal) in CD2F1 (CDF1) mice
Conditions: endpoint: mean survival time, higher = longer survival
Summary of the method: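 Tumor-bearing mice (transplanted tumor) were split into treated and vehicle control groups, and the measured endpoint of each treated group was divided by that of its vehicle controls.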

[1] = dose: 200.0 mg/kg/injection, schedule: Q04DX003 (ip), vehicle: saline
[2] = dose: 400.0 mg/kg/injection, schedule: Q04DX003 (ip), vehicle: saline
[3] = dose: 100.0 mg/kg/injection, schedule: Q01DX001 (ip), vehicle: saline with Tween-80
[4] = dose: 400.0 mg/kg/injection, schedule: Q01DX001 (ip), vehicle: saline with Tween-80
[5] = dose: 50.0 mg/kg/injection, schedule: Q01DX009 (ip), vehicle: saline with Tween-80
[6] = dose: 100.0 mg/kg/injection, schedule: Q01DX009 (ip), vehicle: saline with Tween-80
[7] = dose: 100.0 mg/kg/injection, schedule: Q04DX003 (ip), vehicle: saline with Tween-80
[8] = dose: 200.0 mg/kg/injection, schedule: Q01DX009 (ip), vehicle: saline with Tween-80
[9] = dose: 200.0 mg/kg/injection, schedule: Q04DX003 (ip), vehicle: saline with Tween-80
[10] = dose: 200.0 mg/kg/injection, schedule: Q01DX001 (ip), vehicle: saline with Tween-80
[11] = dose: 400.0 mg/kg/injection, schedule: Q01DX009 (ip), vehicle: saline with Tween-80
[12] = dose: 400.0 mg/kg/injection, schedule: Q04DX003 (ip), vehicle: saline with Tween-80
[13] = dose: 100.0 mg/kg/injection, schedule: Q04DX002 (ip), vehicle: saline with Tween-80
[14] = dose: 200.0 mg/kg/injection, schedule: Q04DX002 (ip), vehicle: saline with Tween-80
[15] = dose: 400.0 mg/kg/injection, schedule: Q04DX002 (ip), vehicle: saline with Tween-80

COc1cc2cc3c4cc(OC)c(OC)cc4cc[n+]3c(C)c2cc1OC
T/C (dose: 100.0 mg/kg/injection, schedule: Q01DX001 (ip), vehicle: saline): 120 % of control | T/C (dose: 132.0 mg/kg/injection, schedule: Q04DX003 (ip), vehicle: saline sonified): 122 % of control | T/C (dose: 200.0 mg/kg/injection, schedule: Q01DX001 (ip), vehicle: saline): 122 % of control | T/C (dose: 200.0 mg/kg/injection, schedule: Q04DX003 (ip), vehicle: saline sonified): 114 % of control | T/C [1]: 122 % of control | T/C (dose: 300.0 mg/kg/injection, schedule: Q04DX003 (ip), vehicle: saline sonified): 123 % of control | T/C (dose: 400.0 mg/kg/injection, schedule: Q01DX001 (ip), vehicle: saline): 109 % of control | T/C [2]: 116 % of control

COc1cccc2c1C(=O)c1c(O)c3c(c(O)c1C2=O)C[C@@](O)(/C(C)=N/NC(=O)c1cccc([N+](=O)[O-])c1)C[C@@H]3OC1CC(N)C(O)C(C)O1 (some centres undefined)
T/C (dose: 2.0 mg/kg/injection, schedule: Q01DX009 (ip), vehicle: water): 121 % of control | T/C (dose: 4.0 mg/kg/injection, schedule: Q01DX009 (ip), vehicle: water): 121 % of control | T/C (dose: 16.0 mg/kg/injection, schedule: Q01DX009 (ip), vehicle: water): 98 % of control

Cc1ccc(NC(=O)NCCCCCCNC(=O)Nc2ccc(C)c(Cl)c2)cc1Cl
T/C [3]: 89 % of control | T/C [4]: 91 % of control

CC1COS(=O)O1 (centres undefined)
T/C (dose: 10.0 mg/kg/injection, schedule: Q01DX009 (ip), vehicle: saline with Tween-80): 96 % of control | T/C (dose: 10.0 mg/kg/injection, schedule: Q04DX003 (ip), vehicle: saline): 103 % of control | T/C (dose: 20.0 mg/kg/injection, schedule: Q01DX009 (ip), vehicle: saline with Tween-80): 101 % of control | T/C (dose: 20.0 mg/kg/injection, schedule: Q04DX003 (ip), vehicle: saline): 97 % of control | T/C (dose: 40.0 mg/kg/injection, schedule: Q01DX009 (ip), vehicle: saline with Tween-80): 109 % of control | T/C (dose: 40.0 mg/kg/injection, schedule: Q04DX003 (ip), vehicle: saline): 101 % of control

Cc1ccccc1CC(C)c1ccccc1 (centres undefined)
T/C [5]: 101 % of control | T/C [6]: 101 % of control | T/C [7]: 90 % of control | T/C [8]: 90 % of control | T/C [9]: 88 % of control

CCCCNC(=O)NC(=O)CCl
T/C (dose: 100.0 mg/kg/injection, schedule: Q04DX003 (ip), vehicle: saline): 97 % of control | T/C [1]: 101 % of control | T/C [2]: 97 % of control

CC[C@](C)(O)C(=O)O[C@H]1C(=O)O[C@@H]2C[C@H]3C(C)=CC(=O)[C@@H](O)[C@]3(C)[C@H]3[C@@]4(O)OC[C@]32[C@@H]1[C@@H](C)[C@H]4O
T/C (dose: 12.5 micrograms/kg/injection, schedule: Q01DX009 (ip), vehicle: saline with Tween-80): 101 % of control | T/C (dose: 25.0 micrograms/kg/injection, schedule: Q01DX009 (ip), vehicle: saline with Tween-80): 100 % of control | T/C (dose: 50.0 micrograms/kg/injection, schedule: Q01DX009 (ip), vehicle: saline with Tween-80): 105 % of control | T/C (dose: 100.0 micrograms/kg/injection, schedule: Q01DX009 (ip), vehicle: saline with Tween-80): 112 % of control

O=C(N/N=C/c1ccccc1)c1ccc(Cl)cc1
T/C (dose: 100.0 mg/kg/injection, schedule: Q01DX009 (ip), vehicle: Klucel (hydroxypropylcellulose) (HPC)): 94 % of control | T/C (dose: 200.0 mg/kg/injection, schedule: Q01DX009 (ip), vehicle: Klucel (hydroxypropylcellulose) (HPC)): 97 % of control | T/C (dose: 400.0 mg/kg/injection, schedule: Q01DX009 (ip), vehicle: Klucel (hydroxypropylcellulose) (HPC)): 101 % of control

Cc1ccc(S(=O)(=O)N2C(=O)OC3(CCCCC3)C2C)cc1 (centres undefined)
T/C [3]: 100 % of control | T/C [10]: 95 % of control | T/C [4]: 92 % of control

O=S(=O)(Oc1ccccc1)c1ccc(Cl)cc1
T/C [6]: 95 % of control | T/C [7]: 98 % of control | T/C [8]: 98 % of control | T/C [9]: 96 % of control | T/C [11]: 98 % of control | T/C [12]: 102 % of control

CCC(C)C1NC(=O)C(NC(=O)c2c3nc4c(C(=O)NC5C(=O)NC(C(C)CC)C(=O)N6CCCC6C(=O)N(C)CC(=O)N(C)C(C(C)C)C(=O)OC5C)cc(N)c(C)c4oc-3c(C)c(=O)c2N)C(C)OC(=O)C(C(C)C)N(C)C(=O)CN(C)C(=O)C2CCCN2C1=O (centres undefined)
T/C (dose: 25.0 micrograms/kg/injection, schedule: Q01DX009 (ip), vehicle: water): 116 % of control | T/C (dose: 50.0 micrograms/kg/injection, schedule: Q01DX009 (ip), vehicle: water): 121 % of control

CN(C)c1nc(=[N+](C)C)ss1
T/C [5]: 104 % of control | T/C [6]: 101 % of control and 107 % of control | T/C [7]: 102 % of control | T/C [8]: 93 % of control and 107 % of control | T/C [9]: 98 % of control | T/C [11]: 93 % of control | T/C [12]: 90 % of control

CN(C)c1ccc(Cc2cc(O)c3c(c2O)C(=O)c2ccccc2C3=O)cc1
T/C (dose: 100.0 mg/kg/injection, schedule: Q01DX009 (ip), vehicle: saline sonified): 93 % of control | T/C (dose: 200.0 mg/kg/injection, schedule: Q01DX009 (ip), vehicle: saline sonified): 100 % of control | T/C (dose: 400.0 mg/kg/injection, schedule: Q01DX009 (ip), vehicle: saline sonified): 96 % of control

CCO/C=N/NC(=O)CNC(=O)C=[N+]=[N-]
T/C [7]: 108 % of control | T/C [9]: 103 % of control | T/C [12]: 108 % of control

N#CCCOCCNCCSC(=O)c1ccccc1
T/C [7]: 95 % of control | T/C [9]: 101 % of control | T/C [12]: 95 % of control

O=c1[nH]cnc2snc(Cl)c12
T/C [3]: 101 % of control | T/C [13]: 92 % of control | T/C [10]: 101 % of control | T/C [14]: 92 % of control | T/C [4]: 100 % of control | T/C [15]: 87 % of control

Cc1ccc(S(=O)(=O)O)cc1.Cc1ccc(S(=O)(=O)O)cc1.[NH-]C1CCCCC1[NH-].[Pt+2]
T/C (dose: 2.0 mg/kg/injection, schedule: Q04DX003 (ip), vehicle: other): 177 % of control | T/C (dose: 4.0 mg/kg/injection, schedule: Q04DX003 (ip), vehicle: other): 255 % of control | T/C (dose: 8.0 mg/kg/injection, schedule: Q04DX003 (ip), vehicle: other): 183 % of control

CCCCCCCC/C=C/CCCCCCCC(=O)NCCCCCCNC(=O)CCCCCCC/C=C/CCCCCCCC
T/C (dose: 100.0 mg/kg/injection, schedule: Q01DX001 (ip), vehicle: other): 94 % of control | T/C (dose: 200.0 mg/kg/injection, schedule: Q01DX001 (ip), vehicle: other): 97 % of control | T/C (dose: 400.0 mg/kg/injection, schedule: Q01DX001 (ip), vehicle: other): 102 % of control

CC(=O)Nc1ccc(/C=N/NC(=O)CNC(=O)Nc2cccc(C(F)(F)F)c2)cc1
T/C [5]: 88 % of control | T/C [6]: 88 % of control | T/C [8]: 92 % of control

O=C1CCCCc2c1ccc(O)c2[N+](=O)[O-]
T/C (dose: 12.5 mg/kg/injection, schedule: Q01DX009 (ip), vehicle: saline): 113 % of control | T/C (dose: 25.0 mg/kg/injection, schedule: Q01DX009 (ip), vehicle: saline): 106 % of control | T/C (dose: 50.0 mg/kg/injection, schedule: Q01DX009 (ip), vehicle: saline): 97 % of control

O=c1c2ccccc2on1-c1ncnc2nc[nH]c12
T/C (dose: 12.5 mg/kg/injection, schedule: Q01DX005 (ip), vehicle: other): 105 % of control | T/C (dose: 25.0 mg/kg/injection, schedule: Q01DX005 (ip), vehicle: other): 113 % of control | T/C (dose: 50.0 mg/kg/injection, schedule: Q01DX005 (ip), vehicle: other): 111 % of control | T/C (dose: 100.0 mg/kg/injection, schedule: Q01DX005 (ip), vehicle: other): 95 % of control

CCCCCCCCCCCCCCCCOCCOCCOCCOCCOCCCCCCCCCCCCCCCC
T/C [13]: 94 % of control | T/C [14]: 94 % of control | T/C [15]: 98 % of control

CC(=O)Nc1ccc(-c2c(NCCO)ncc3ccccc23)cc1
T/C (dose: 25.0 mg/kg/injection, schedule: Q04DX003 (ip), vehicle: other): 104 % of control | T/C (dose: 50.0 mg/kg/injection, schedule: Q04DX003 (ip), vehicle: other): 98 % of control | T/C (dose: 100.0 mg/kg/injection, schedule: Q04DX003 (ip), vehicle: other): 98 % of control | T/C (dose: 200.0 mg/kg/injection, schedule: Q04DX003 (ip), vehicle: other): 104 % of control

Cc1ccc2nc(-c3ccc([N+](=O)[O-])cc3)oc(=O)c2c1
T/C [5]: 93 % of control | T/C [6]: 97 % of control | T/C [8]: 93 % of control

CC12NC(=O)NC1(C)NC(=O)N2 (centres undefined)
T/C [6]: 95 % of control | T/C [8]: 101 % of control | T/C [11]: 86 % of control

CC(C)c1ccc2ccccc2c1
T/C [7]: 91 % of control | T/C [9]: 87 % of control | T/C [12]: 86 % of control
